{"source": "paper PMC3438226", "about": "(Bioorganic & medicinal chemistry, 2012)", "key": {"[1]": {"biological_target": "T1, human MTAP (Homo sapiens, UniProt Q13126)", "T1 sequence (Q13126 1-283)": "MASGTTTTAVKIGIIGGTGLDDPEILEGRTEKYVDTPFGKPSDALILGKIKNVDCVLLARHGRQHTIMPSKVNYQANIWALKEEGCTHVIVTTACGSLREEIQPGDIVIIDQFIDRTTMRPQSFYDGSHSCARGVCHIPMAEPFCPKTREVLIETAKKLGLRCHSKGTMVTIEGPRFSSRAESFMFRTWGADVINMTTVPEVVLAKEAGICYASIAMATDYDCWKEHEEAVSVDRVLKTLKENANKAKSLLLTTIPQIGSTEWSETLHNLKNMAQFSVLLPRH", "experiment": "Inhibition of phosphorolysis of MTA catalysed by human MTAP", "format": "biochemical"}, "[2]": {"biological_target": "T2, E. coli MTAN (Escherichia coli, UniProt P0AF12)", "T2 sequence (P0AF12 whole entry)": "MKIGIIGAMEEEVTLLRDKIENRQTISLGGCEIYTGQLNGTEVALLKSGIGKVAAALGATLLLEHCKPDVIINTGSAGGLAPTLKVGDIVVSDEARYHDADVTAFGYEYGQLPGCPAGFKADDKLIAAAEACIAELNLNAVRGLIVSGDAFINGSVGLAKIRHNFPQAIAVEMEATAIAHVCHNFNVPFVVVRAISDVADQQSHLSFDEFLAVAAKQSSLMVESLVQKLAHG", "format": "biochemical"}, "[3]": {"biological_target": "T3, N. meningitidis MTAN (Neisseria meningitidis, UniProt Q9K054)", "experiment": "Inhibition of hydrolysis of MTA catalysed by N. meningitidis MTAN", "format": "biochemical"}, "[4]": {"biological_target": "T3, N. meningitidis MTAN", "details": "read-out: Ki* N. men. MTAN; Ki* value; cited from earlier work"}, "[5]": {"biological_target": "T2, E. coli MTAN", "details": "read-out: Ki* E. coli MTAN; Ki* value; cited from earlier work"}}}
{"compound": "CSCC(CO)CNCc1c[nH]c2c(N)ncnc12", "note": "(racemic) [(±)-25]", "values": [{"measurement": "weaker binding affinity compared with 4", "setting": "[1]", "value": "approximately 110 fold"}, {"measurement": "times weaker inhibitor than 17 I", "setting": "[2]; E. coli MTAN", "value": 1.5, "unit": "fold"}, {"measurement": "weaker binding affinity compared with 4", "setting": "[2]; E. coli MTAN", "value": "~180", "unit": "fold"}, {"measurement": "difference in binding affinity compared with 4", "setting": "[3]; N. meningitidis MTAN", "value": 9, "unit": "fold"}]}
{"compound": "CSC[C@@H](CN(C)Cc1c[nH]c2c(N)ncnc12)[C@@H](O)CO", "note": "(racemic) [(±)-68]", "values": [{"measurement": "improvement of inhibition relative to (±)-65", "setting": "[1]; N-methylation", "value": "about 3 fold"}, {"measurement": "loss of binding affinity relative to (±)-65", "setting": "[2]; E. coli MTAN, N-methylation", "value": 250, "unit": "fold"}, {"measurement": "loss in activity relative to (±)-65", "setting": "[3]; N. meningitidis MTAN, N-methylation", "value": "~12", "unit": "fold"}]}
{"compound": "CSC[C@H](O)[C@@H](CO)CN(C)Cc1c[nH]c2c(N)ncnc12", "note": "(racemic) [(±)-72]", "values": [{"measurement": "reduction in binding affinity relative to (±)-68", "setting": "[1]", "value": "~9", "unit": "fold"}, {"measurement": "gain in binding affinity relative to (±)-68", "setting": "[2]; E. coli MTAN", "value": "~6", "unit": "fold"}, {"measurement": "reduction in binding affinity relative to (±)-68", "setting": "[3]; N. meningitidis MTAN", "value": "approximately 2 fold"}]}
{"compound": "CSC[C@H](O)[C@@H](O)CN(C)Cc1c[nH]c2c(N)ncnc12", "note": "(racemic) [(±)-78]", "values": [{"measurement": "loss in activity relative to (±)-72", "setting": "[1]", "value": "~4", "unit": "fold"}, {"measurement": "increase in potency relative to (±)-72", "setting": "[2]; bacterial MTANs (E. coli)", "value": "approximately 2 fold"}, {"measurement": "increase in potency relative to (±)-72", "setting": "[3]; bacterial MTANs (N. meningitidis)", "value": "approximately 2 fold"}]}
{"compound": "CSC[C@@H](O)[C@@H](CO)NCc1c[nH]c2c(N)ncnc12", "note": "[Compound 33]", "values": [{"measurement": "times weaker inhibitor than 17 I", "setting": "[2]; E. coli MTAN", "value": "about 4 fold"}]}
{"compound": "CSC[C@@H](O)CNCc1c[nH]c2c(N)ncnc12", "note": "[Compound 54]", "values": [{"measurement": "drop in binding affinity relative to (±)-25", "setting": "[2]; E. coli MTAN", "value": "~110", "unit": "fold"}]}
{"compound": "CSC[C@H](CO)N[C@H](CO)c1c[nH]c2c(N)ncnc12", "note": "[Compound 79]", "values": [{"measurement": "loss of activity relative to 3", "setting": "[2]; E. coli MTAN, cleavage of 2,3 C-C bond of 3", "value": "21,500 fold"}]}
{"compound": "(1S)-1-(9-deazaadenin-9-yl)-1,4-dideoxy-1,4-imino-5-methylthio-D-ribitol [Compound 3]", "values": [{"measurement": "Ki", "setting": "[4]", "value": 0.36, "unit": "nM"}, {"measurement": "Ki", "setting": "[5]", "value": "0.08 ± 0.02", "unit": "nM"}]}
